Test system: Ctenocephalides felis
Assay: In-vivo study: topical spot-on formulations on beagle dogs infested with fleas on Day 30
Settings: compound alone, 30 mg/kg topical, Day 30 infestation (Table 1)
Protocol: In-vivo studies were conducted in compliance with International Cooperation on Harmonisation of Technical Requirements for Registration of Veterinary Products (VICH) and Good Clinical Practice (GCP) principles and practices.
In one in-vivo study, topical spot-on formulations were prepared using dipropylene glycol monomethyl ether (DPGMME) and ethanol (80:20% v/v) and butylated hydroxyl anisol (BHA) 0.1% w/v. Control was vehicle. Treatment T02 was 30 mg/kg (150 mg/mL) compound (1A1); T03 was 20 mg/kg (100 mg/mL) compound (1A1), 6.7 mg/kg (33.5 mg/mL) fipronil, and 6 mg/kg (30 mg/mL) s-methoprene; T04 was 30 mg/kg (150 mg/mL) compound (1A1), 6.7 mg/kg (50.4 mg/mL) fipronil, and 6 mg/kg (45 mg/mL) s-methoprene; and T05 was 30 mg/kg (150 mg/mL) compound (1A1), 6.7 mg/kg (33.5 mg/mL) fipronil and 6 mg/kg (30 mg/mL) s-methoprene. A total of 40 beagle dogs (8 dogs/treatment group) were used. Dogs were individually housed. Treatments were administered on Day 0. On Day 30, dogs were infested with 100 Ctenocephalides felis unfed adult fleas. Dead and non-moving fleas were counted at 24 and 48 hours after infestation (Table 1).

Cc1cccc([C@H](C)c2ncc[nH]2)c1C [compound (1A1), 2-[(1S)-1-(2,3-dimethylphenyl)ethyl]-1H-imidazole]
intrinsic flea activity: lacks intrinsic flea activity
